Experimental data reported in article PMC9537572, “Elucidation of the binding mechanism of astragaloside IV derivative with human serum albumin and its cardiotoxicity in zebrafish embryos” (Frontiers in Pharmacology, 2022).
Marks after values point to notes of the source that are not given here.

Assays:
[1] = ref Xu et al., 2016; cited from earlier work
[2] = molecular target: T1, HSA (Homo sapiens, UniProt P02768); test: Plasma protein binding rate by equilibrium dialysis and UHPLC-MS/MS; format: in vitro ADME; conditions: human, plasma, equilibrium dialysis 72 h at 4 °C, n = 3, read-out: Protein binding rate (%, Mean±SD) (converted)
T1 sequence (P02768 25-609): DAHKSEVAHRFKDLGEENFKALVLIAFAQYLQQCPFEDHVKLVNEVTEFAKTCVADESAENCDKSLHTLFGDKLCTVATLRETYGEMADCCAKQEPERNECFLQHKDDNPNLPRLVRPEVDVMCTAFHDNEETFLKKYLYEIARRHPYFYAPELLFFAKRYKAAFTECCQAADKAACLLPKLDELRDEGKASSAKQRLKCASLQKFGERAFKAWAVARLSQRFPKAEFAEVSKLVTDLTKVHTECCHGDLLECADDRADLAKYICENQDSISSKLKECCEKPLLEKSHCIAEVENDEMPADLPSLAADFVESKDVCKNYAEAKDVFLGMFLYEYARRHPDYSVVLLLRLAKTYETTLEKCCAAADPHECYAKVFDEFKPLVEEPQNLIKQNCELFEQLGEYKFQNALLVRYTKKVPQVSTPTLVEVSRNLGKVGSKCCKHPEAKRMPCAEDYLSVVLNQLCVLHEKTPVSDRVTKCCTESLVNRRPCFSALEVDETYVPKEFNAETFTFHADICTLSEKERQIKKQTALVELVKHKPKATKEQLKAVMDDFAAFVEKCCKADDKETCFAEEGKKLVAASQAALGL
Procedure: The binding rate of AGS IV/LS-102 and HSA was determined using a slightly modified equilibrium dialysis method ([Metsu et al., 2020]). […] The stock solutions of HSA (0.5 ml) and drug group (0.5 ml) were placed in a dialysis membrane bag that was ligated at both ends and then immersed in a test tube filled with 50 ml of PBS solution for 72 h at 4 °C. After equilibrium, a 0.5-ml solution of outer dialysate and internal dialysate was collected into a 2-ml EP tube, and 10 µL IS (digoxin, 0.1 mg/ml) solution was added to each tube. Both samples were added to 1.5 ml of acetonitrile and vortexed for 3 min, and then the samples were separated via centrifugation at 18,000 × g for 20 min. The supernatants were transferred to another EP tube and dried under a nitrogen stream. The residue was redissolved in 1 ml methanol, sonicated for 2 min, vortexed for 3 min, and centrifuged at 18,000 × g for 10 min. The supernatant was filtered with a 0.22 µm microporous syringe filter in a 2 ml sample vial, and 1 µL was injected into the UHPLC-MS/MS system for analysis. The plasma protein binding rate was calculated according to the following formula ([Talbert et al., 2002]): Plasma binding rate=Internal drug concentration−External drug concentration/Initial drug concentration ×100%

[3] = molecular target: T1, HSA; test: Site marker competitive experiments (warfarin, ibuprofen) by equilibrium dialysis; format: in vitro ADME; conditions: drug 0.476 mg/ml, n = 3, read-out: Plasma protein binding (converted)
Procedure: The site marker competitive experiments were performed using two classical site probes, warfarin and ibuprofen, which were selected as the markers of subdomain IIA (site I) and subdomain IIIA (site II) separately of HAS ([Ghuman et al., 2005]). The procedure was consistent with the method described in section 2.5, except that the concentrations of AGS IV and LS-102 were both fixed at 0.476 mg/ml, while the external dialysis solution was changed to contain the probe with a final concentration of 0, 0.06, 0.3, 1.2 mg/ml PBS solution. Briefly, the AGS IV/LS-102 HSA mixture (0.5 ml drug and 0.5 ml HSA) was separately incubated with three different concentrations of probe to evaluate the effects of warfarin or ibuprofen on drug-protein binding influence. Three replicates of each concentration were prepared. After equilibrium dialysis, the internal and external dialysates were analyzed by UHPLC-MS/MS.

[4] = system: zebrafish embryos; test: Astemizole-induced cardiotoxicity in zebrafish embryos: heart rate and SV-BA spacing; format: in vivo; conditions: 4 µM astemizole; for Heart rate (beats/min) (Mean±SE) / SV-BA spacing (µm) (Mean±SE): 250 µg/ml, n = 10
Procedure: A total of 270 wild-type AB zebrafish at 3 dpf were randomly selected, and 30 zebrafish were plated in each well of a six-well plates. The concentrations of LS-102 were 27.8, 83.3 and 250 µg/ml, AGS IV was 250 µg/mL. A normal control group (fish culture water) and a 4 µM astemizole model control group were also established. Ten zebrafish were randomly selected from each group, and the heart rate and venous sinus-to-arterial bulb distance (SV-BA) of zebrafish were observed under a dissecting microscope after 2 h, 6 h and 24 h of LS-102 and AGS IV treatment. Images were collected by photographing, and the ameliorative effect of LS-102 and AGS IV on astemizole-induced cardiotoxicity in zebrafish was evaluated by the statistical significance of the heart rate and the SV-BA interval index.

[5] = system: zebrafish; test: Arachidonic acid-induced thrombosis in zebrafish; format: in vivo; conditions: for Staining intensity of cardiac red blood cells (pixels) (mean ± se): 3 h pretreatment, arachidonic acid 1.5 h, n = 10; for Antithrombotic effect (%): vs. model group, arachidonic acid-induced thrombosis
Procedure: A total of 270 melanin allele mutant translucent albino strain zebrafish at 3 dpf were randomly selected, with 30 zebrafish per well in six-well plates. The concentrations of LS-102 were 6.25, 12.5, 25, 50, and 100 µg/ml, while that of AGS IV was 100 µg/ml, and the positive control drug aspirin was 25 µg/ml. After treatment with LS-102 and AGS IV for 3 h, arachidonic acid aqueous solution was administered for 1.5 h to induce a thrombosis model in zebrafish in all experimental groups except the normal group. After staining with o-anisidine, zebrafish were randomly selected from each experimental group and observed under a dissecting microscope and photographed. Data were collected to qualitatively evaluate thrombosis in zebrafish, and the intensity of cardiac erythrocyte staining (length of venous thrombus vs. number of cardiac erythrocytes) in zebrafish was analyzed and counted to establish, the preventive effect of LS-102 and AGS IV with aspirin on thrombosis in zebrafish. The formula was calculated as follows:
Thromboprophylactic effect (%) = S (drug administration group)−S (model group)/S (nomal control group)−S (model group)×100%

[6] = system: zebrafish embryos; test: Astemizole-induced toxicity in zebrafish heart development; format: in vivo; conditions: 250 µg/mL, n=30
Procedure: A total of 270 wild-type AB zebrafish at 2 h post-fertilization (2 hpf) were randomly selected, and 30 zebrafish were plated in each well of a six-well plates. The concentrations of LS-102 were 27.8, 83.3 and 250 µg/ml, while that of AGS IV was 250 µg/mL. A normal control group (fish culture water) and a 4 µM astemizole model control group were also established. After LS-102 and AGS IV were cotreated with astemizole for 48 h, zebrafish heart development was observed and photographed under a microscope to evaluate the ameliorative effect of LS-102 and AGS IV on astemizole-induced toxicity in zebrafish heart development.

SMILES: CC(C)(O)C1CCC(C)(C2C(O)CC3(C)C4CC(OC5OC(CO)C(O)C(O)C5O)C5C(C)(C)C(OC6OCC(O)C(O)C6O)CCC56CC46CCC23C)O1 [AGS IV, 3-O-β-D-xylopyranosyl-6-O-β-D-glucopyranosyl-cycloastragenol, reference compound]
- Degree of protein binding with human plasma [1]: up to 86.69%
- fraction unbound at 72 h, 0.238 mg/ml ([2]; drug 0.238 mg/ml): 0.0538
- fraction unbound at 72 h, 0.476 mg/ml ([2]; drug 0.476 mg/ml): 0.0258
- fraction unbound at 72 h, 0.714 mg/ml ([2]; drug 0.714 mg/ml): 0.0594
- fraction unbound at 72 h, 0.476 mg/ml ([3]; with ibuprofen 0.06 mg/ml): 0.0718
- fraction unbound at 72 h, 0.476 mg/ml ([3]; with ibuprofen 0.3 mg/ml): 0.0613
- fraction unbound at 72 h, 0.476 mg/ml ([3]; with ibuprofen 1.2 mg/ml): 0.0281
- fraction unbound at 72 h, 0.476 mg/ml ([3]; with warfarin 0.06 mg/ml): 0.051
- fraction unbound at 72 h, 0.476 mg/ml ([3]; with warfarin 0.3 mg/ml): 0.089
- fraction unbound at 72 h, 0.476 mg/ml ([3]; with warfarin 1.2 mg/ml): 0.0781
- fraction unbound at 72 h, 0.476 mg/ml ([3]; without site markers): 0.0333
- Heart rate (beats/min) (Mean±SE) ([4]; 2 h): 148 ± 1 beats/min
- SV-BA spacing (µm) (Mean±SE) ([4]; 2 h): 210 ± 4 µm
- Heart rate (beats/min) (Mean±SE) ([4]; 6 h): 146 ± 2 beats/min
- SV-BA spacing (µm) (Mean±SE) ([4]; 6 h): 242 ± 7 µm
- Heart rate (beats/min) (Mean±SE) ([4]; 24 h): 75 ± 25 beats/min
- SV-BA spacing (µm) (Mean±SE) ([4]; 24 h): 241 ± 4 µm
- Effect on astemizole-induced heart rate slowing and SV-BA spacing increase (in words) ([4]; 24 h): no significant changes
- Staining intensity of cardiac red blood cells (pixels) (mean ± se) ([5]; 100 µg/ml): 1446 ± 54 pixels
- Antithrombotic effect (%) ([5]; 100 µg/ml): 5%
- Phenotype: cardiac capsular oedema, lack of blood flow (share of zebrafish) ([6]; 4 µM astemizole, 48 h): 100% cardiac capsular oedema, lack of blood flow
- Mortality ([6]; cotreated with 4 µM astemizole 48 h from 2 hpf): 3.3%

SMILES: CC(=O)Oc1ccccc1C(=O)O [Aspirin, aspirin, reference compound]
- Staining intensity of cardiac red blood cells (pixels) (mean ± se) ([5]; 25 µg/ml): 2036 ± 92 pixels
- Staining intensity of cardiac red blood cells (pixels) (mean ± se) ([5]; 25 µg/ml, listed as aspirin): 2036 pixels
- Antithrombotic effect (%) ([5]; 25 µg/ml): 70^*** %
- Antithrombotic effect (%) ([5]; 25 µg/ml, listed as aspirin): 70%
